Test results from ChEMBL document CHEMBL1201862, “PubChem BioAssay data set” (2004).
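A five-concentration, 48-hour dose response in 96-well plates underlies each endpoint, interpolated linearly between surrounding concentrations. GI50: concentration for 50% inhibition of growth.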 The source made the active and inactive calls. Rule as the data show it: active = GI50 up to about 1.1 µM and inactive = higher.

How the values were obtained:
Assay in all cases: growth of human tumour cells (NCI), 48 h
HL-60 = system: HL-60
HCC 2998 = system: HCC 2998
RPMI-8226 = system: RPMI-8226
COLO 205 = system: COLO 205
IGROV-1 = system: IGROV-1
OVCAR-4 = system: OVCAR-4
PC-3 = system: PC-3
Malme-3M = system: Malme-3M
U-251 = system: U-251
SK-MEL-5 = system: SK-MEL-5
ACHN = system: ACHN
BT-549 = system: BT-549
M14 = system: M14
UACC-257 = system: UACC-257
SNB-19 = system: SNB-19
A549 = system: A549
SF-295 = system: SF-295
Hs-578T = system: Hs-578T
MDA-MB-435 = system: MDA-MB-435
T47D = system: T47D

Measured: GI50

Cc1cccc2c1nc1n2C(=O)c2ccccc2-1
inactive: HL-60 > 100 µM | HCC 2998 > 100 µM | RPMI-8226 > 100 µM | COLO 205 > 100 µM | IGROV-1 > 100 µM | OVCAR-4 > 100 µM | PC-3 > 100 µM | Malme-3M > 100 µM | U-251 > 100 µM | SK-MEL-5 > 100 µM | ACHN > 100 µM | BT-549 > 100 µM | M14 > 100 µM | UACC-257 > 100 µM | SNB-19 > 100 µM | A549 > 100 µM | SF-295 > 100 µM

CC(C)C(Br)CCC1=CCC(Br)(Br)C1 (configuration not stated)
inactive: HL-60 3.4 µM | HCC 2998 14.9 µM | COLO 205 15.7 µM | IGROV-1 3.21 µM | OVCAR-4 9.1 µM | Hs-578T 18.6 µM | PC-3 14.9 µM | Malme-3M 14.6 µM | U-251 15.4 µM | MDA-MB-435 10.5 µM | SK-MEL-5 5.45 µM | ACHN 16.9 µM | BT-549 20.2 µM | M14 3.81 µM | UACC-257 14.5 µM | SNB-19 18 µM | A549 17.9 µM | SF-295 17 µM

Cc1ccc2nc(CN(CCO)CCO)cc(=O)n2c1
inactive: HL-60 > 100 µM | HCC 2998 > 100 µM | COLO 205 > 100 µM | IGROV-1 > 100 µM | OVCAR-4 > 100 µM | Hs-578T > 100 µM | PC-3 > 100 µM | Malme-3M > 100 µM | U-251 > 100 µM | MDA-MB-435 > 100 µM | ACHN > 100 µM | BT-549 > 100 µM | M14 > 100 µM | UACC-257 > 100 µM | SNB-19 > 100 µM | A549 > 100 µM | SF-295 > 100 µM

CCOC(=O)C(=O)Nc1ccc(C)cc1C
inactive: HL-60 > 100 µM | HCC 2998 > 100 µM | RPMI-8226 > 100 µM | COLO 205 > 100 µM | IGROV-1 > 100 µM | OVCAR-4 > 100 µM | Malme-3M > 100 µM | U-251 > 100 µM | SK-MEL-5 > 100 µM | ACHN > 100 µM | M14 > 100 µM | UACC-257 > 100 µM | SNB-19 > 100 µM | A549 > 100 µM | SF-295 > 100 µM

CC(=O)NC(C)c1ccc(/N=N/N2CCCC2)cc1 (configuration not stated)
inactive: HL-60 27.4 µM | HCC 2998 > 100 µM | COLO 205 > 100 µM | IGROV-1 > 100 µM | T47D > 100 µM | OVCAR-4 > 100 µM | Hs-578T > 100 µM | PC-3 > 100 µM | Malme-3M > 100 µM | U-251 > 100 µM | MDA-MB-435 > 100 µM | SK-MEL-5 > 100 µM | ACHN > 100 µM | M14 > 100 µM | UACC-257 > 100 µM | SNB-19 > 100 µM | A549 > 100 µM | SF-295 > 100 µM

COC(=O)[C@](NC(=O)OCc1ccccc1)([C@@H](C)Sc1ccc(C)cc1)C(F)(F)F
inactive: HL-60 17.4 µM | HCC 2998 > 100 µM | RPMI-8226 29.2 µM | COLO 205 19.2 µM | IGROV-1 16.5 µM | OVCAR-4 32.3 µM | Hs-578T 44.9 µM | PC-3 43 µM | Malme-3M 55.7 µM | U-251 46.9 µM | MDA-MB-435 49.2 µM | SK-MEL-5 18.3 µM | ACHN 60.3 µM | BT-549 34.9 µM | M14 68.2 µM | UACC-257 35 µM | SNB-19 > 100 µM | A549 34.6 µM | SF-295 61.1 µM

CN(C)CCNC(=O)c1cccc2c(NC(CS)C(=O)O)c3ccccc3nc12 (configuration not stated)
inactive: HL-60 3.3 µM | HCC 2998 6.21 µM | RPMI-8226 7.52 µM | COLO 205 3.01 µM | IGROV-1 4.88 µM | OVCAR-4 17.1 µM | PC-3 6.07 µM | Malme-3M 2.52 µM | U-251 6.38 µM | MDA-MB-435 4.49 µM | SK-MEL-5 3.07 µM | ACHN 4.49 µM | BT-549 14.5 µM | M14 4.39 µM | UACC-257 10.1 µM | SNB-19 7.52 µM | A549 4.62 µM | SF-295 5.32 µM

CC1OC(OP(=O)(OCc2ccccc2)OCc2ccccc2)C(OC(=O)c2ccccc2)C(OC(=O)c2ccccc2)C1I (configuration not stated)
inactive: HL-60 20.7 µM | HCC 2998 54.6 µM | RPMI-8226 19.6 µM | COLO 205 30.2 µM | IGROV-1 76 µM | OVCAR-4 60.1 µM | Malme-3M 39.4 µM | U-251 50.4 µM | SK-MEL-5 27.3 µM | ACHN 32.6 µM | M14 37.6 µM | UACC-257 39.3 µM | SNB-19 43.8 µM | A549 26.4 µM | SF-295 88.3 µM
